Assay: Piroctone olamine as a phenoxyethanol solution
Assay type: physicochemical
Conditions: if heated, for example to 80° C.
Protocol: In some embodiments, piroctone olamine is dissolved in a suitable amount of phenoxyethanol; i.e., all or part of the phenoxyethanol of the composition can be employed as the solvent for the piroctone olamine. Typically, where phenoxyethanol is the solvent for the piroctone olamine pre-mix or pre-solution, the piroctone olamine is present in the pre-mixture or pre-solution in an amount of from 1-30% by weight; for example 5%, 10%, 15%, 20%, 25% or 30% by weight. In such embodiments, the mixture including the piroctone olamine and phenoxyethanol is preferably heated to a temperature of from 50-120° C.; for example from 60-100° C.; for example from 65-80° C.; preferably to effect partial or complete dissolution of the piroctone olamine.
The data above show the feasibility of adding piroctone olamine as a phenoxyethanol solution up to at least 30% w/w during bar soap manufacturing, if heated, for example to 80° C. Furthermore, some piroctone olamine can optionally be supplemented as a solution in a further solvent, such as a fragrance or a fragrance dissolved in a solvent, preferably up to 7.5% at room temperature.

Cc1cc(CC(C)CC(C)(C)C)n(O)c(=O)c1.NCCO (stereo not shown) [piroctone olamine]
piroctone olamine as a phenoxyethanol solution, feasible concentration: at least 30 % w/w

Source: patent publication US10821059B2, “Cleansing bars” (priority 2015, dated 2020)
